Experimental data taken from US20120264735A1 (priority 2009, published 2012).
pIC50: −log10 of the molar value.

Target: T1, c-Met kinase (recombinant c-Met) (Homo sapiens, UniProt P08581)
T1 construct: 0.27 nM recombinant c-Met
Experiment: In vitro kinase assay I (homogeneous time-resolved fluorescence tyrosine kinase assay)
Type: biochemical
Method in brief: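 Biotinylated peptide (0.5 μM) phosphorylated by 0.2 nM recombinant c-Met with 50 μM MgATP, 60 min at room temperature, pH 7.4, 5% DMSO. EDTA stop; HTRF read with Eu-anti-phosphotyrosine antibody and streptavidin-APC. IC50 from 4-parameter logistic fit.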

T1 sequence (P08581 25-1390): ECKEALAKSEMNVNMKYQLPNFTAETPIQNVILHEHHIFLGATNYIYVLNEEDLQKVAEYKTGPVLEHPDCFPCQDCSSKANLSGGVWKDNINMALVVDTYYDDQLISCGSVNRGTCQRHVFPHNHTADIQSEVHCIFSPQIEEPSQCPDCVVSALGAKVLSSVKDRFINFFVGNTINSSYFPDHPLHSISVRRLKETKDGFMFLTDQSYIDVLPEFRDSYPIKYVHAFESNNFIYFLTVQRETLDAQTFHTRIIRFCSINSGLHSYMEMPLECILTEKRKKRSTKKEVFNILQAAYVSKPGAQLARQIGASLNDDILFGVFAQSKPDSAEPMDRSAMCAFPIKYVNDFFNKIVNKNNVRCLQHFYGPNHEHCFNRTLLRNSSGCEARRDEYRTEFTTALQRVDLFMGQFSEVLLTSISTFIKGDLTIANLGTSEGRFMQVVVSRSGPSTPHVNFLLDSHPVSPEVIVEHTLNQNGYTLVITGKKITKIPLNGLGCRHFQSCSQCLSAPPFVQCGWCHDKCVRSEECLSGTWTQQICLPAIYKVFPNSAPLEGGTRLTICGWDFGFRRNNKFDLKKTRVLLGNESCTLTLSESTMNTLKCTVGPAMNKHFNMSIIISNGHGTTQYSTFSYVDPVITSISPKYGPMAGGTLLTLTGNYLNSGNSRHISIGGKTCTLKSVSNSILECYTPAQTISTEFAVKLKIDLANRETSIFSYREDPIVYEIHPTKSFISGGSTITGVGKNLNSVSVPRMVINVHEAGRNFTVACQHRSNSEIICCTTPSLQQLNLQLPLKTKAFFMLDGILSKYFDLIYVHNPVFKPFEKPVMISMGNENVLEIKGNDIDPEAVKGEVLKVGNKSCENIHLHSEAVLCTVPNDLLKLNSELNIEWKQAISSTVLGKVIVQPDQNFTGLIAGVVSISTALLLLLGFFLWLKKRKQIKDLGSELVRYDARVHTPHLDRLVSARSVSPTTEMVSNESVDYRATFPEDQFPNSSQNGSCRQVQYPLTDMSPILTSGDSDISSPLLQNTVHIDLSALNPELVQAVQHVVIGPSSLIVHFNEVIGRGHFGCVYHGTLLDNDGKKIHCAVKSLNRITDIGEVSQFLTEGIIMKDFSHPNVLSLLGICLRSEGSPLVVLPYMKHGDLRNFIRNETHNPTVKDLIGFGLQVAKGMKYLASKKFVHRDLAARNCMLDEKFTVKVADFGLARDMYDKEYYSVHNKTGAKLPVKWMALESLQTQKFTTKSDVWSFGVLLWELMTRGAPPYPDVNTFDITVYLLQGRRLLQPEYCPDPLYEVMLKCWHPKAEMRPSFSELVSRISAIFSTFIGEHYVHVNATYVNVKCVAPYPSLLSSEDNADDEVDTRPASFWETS

Structure (SMILES)	pIC50
CCOc1cnc(-c2cccc(Cc3nn(-c4ccc(C#N)c(F)c4)ccc3=O)c2)nc1 [Example 148, 4-{3-[3-(5-ethoxypyrimidin-2-yl)benzyl]-4-oxopyridazin-1(4H)-yl}-2-fluorobenzonitrile]	> 7.00
COCCOc1cnc(-c2cccc(Cc3nn(-c4cc(F)cc(F)c4)ccc3=O)c2)nc1 [Example 149, 1-(3,5-difluorophenyl)-3-{3-[5-(2-methoxyethoxy)pyrimidin-2-yl]benzyl}pyridazin-4(1H)-one]	> 7.00
CCOc1cnc(-c2cccc(Cc3nn(-c4cnn(CC)c4)ccc3=O)c2)nc1 [Example 150, 3-[3-(5-ethoxypyrimidin-2-yl)benzyl]-1-(1-ethyl-1H-pyrazol-4-yl)pyridazin-4(1H)-one]	> 7.00
CCn1cc(-n2ccc(=O)c(Cc3cccc(-c4ncc(OCCOC)cn4)c3)n2)cn1 [Example 151, 1-(1-ethyl-1H-pyrazol-4-yl)-3-{3-[5-(2-methoxyethoxy)pyrimidin-2-yl]benzyl}pyridazin-4(1H)-one]	> 7.00
CCOc1cnc(-c2cccc(Cc3nn(-c4ccc(Cl)c(F)c4)ccc3=O)c2)nc1 [Example 152, 1-(4-chloro-3-fluorophenyl)-3-[3-(5-ethoxypyrimidin-2-yl)benzyl]pyridazin-4(1H)-one]	> 7.00
COCCOc1cnc(-c2cccc(Cc3nn(-c4ccc(Cl)c(F)c4)ccc3=O)c2)nc1 [Example 153, 1-(4-chloro-3-fluorophenyl)-3-{3-[5-(2-methoxyethoxy)pyrimidin-2-yl]benzyl}pyridazin-4(1H)-one]	> 7.00
Cn1cc(-c2cnc(-c3cccc(Cc4nn(-c5cnn(C)c5)ccc4=O)c3)nc2)cn1 [Example 154, 1-(1-methyl-1H-pyrazol-4-yl)-3-{3-[5-(1-methyl-1H-pyrazol-4-yl)pyrimidin-2-yl]benzyl}pyridazin-4(1H)-one]	> 7.00
Cn1cc(-c2cnc(-c3cccc(Cc4nn(-c5cc(F)cc(C#N)c5)ccc4=O)c3)nc2)cn1 [Example 155, 3-fluoro-5-[3-{3-[5-(1-methyl-1H-pyrazol-4-yl)pyrimidin-2-yl]benzyl}-4-oxopyridazin-1(4H)-yl]benzonitrile]	> 7.00
Cn1cc(-c2cnc(-c3cccc(Cc4nn(-c5ccc(F)c(F)c5)ccc4=O)c3)nc2)cn1 [Example 156, 1-(3,4-difluorophenyl)-3-{3-[5-(1-methyl-1H-pyrazol-4-yl)pyrimidin-2-yl]benzyl}pyridazin-4(1H)-one]	> 7.00
CCn1cc(-n2ccc(=O)c(Cc3cccc(-c4ncc(-c5cnn(C)c5)cn4)c3)n2)cn1 [Example 157, 1-(1-ethyl-1H-pyrazol-4-yl)-3-{3-[5-(1-methyl-1H-pyrazol-4-yl)pyrimidin-2-yl]benzyl}pyridazin-4(1H)-one]	> 7.00
Cn1cc(-c2cnc(-c3cccc(Cc4nn(-c5cc(Cl)cc(C#N)c5)ccc4=O)c3)nc2)cn1 [Example 158, 3-chloro-5-[3-{3-[5-(1-methyl-1H-pyrazol-4-yl)pyrimidin-2-yl]benzyl}-4-oxopyridazin-1(4H)-yl]benzonitrile]	> 7.00
Cn1cc(-n2ccc(=O)c(Cc3cccc(-c4ncc(NC(=O)OC(C)(C)C)cn4)c3)n2)cn1 [Example 159, tert-butyl [2-(3-{[1-(1-methyl-1H-pyrazol-4-yl)-4-oxo-1,4-dihydropyridazin-3-yl]methyl}phenyl)pyrimidin-5-yl]carbamate]	> 7.00
CCOc1cnc2ccc(Cc3nn(-c4cnn(CC)c4)ccc3=O)cc2c1 [Example 160, 3-[(3-ethoxyquinolin-6-yl)methyl]-1-(1-ethyl-1H-pyrazol-4-yl)pyridazin-4(1H)-one]	6.00 to 7.00
COCc1cnc(-c2cccc(Cc3nn(-c4cnn(C)c4)ccc3=O)c2)nc1 [Example 161, 3-{3-[5-(methoxymethyl)pyrimidin-2-yl]benzyl}-1-(1-methyl-1H-pyrazol-4-yl)pyridazin-4(1H)-one]	> 7.00
CCOCc1cnc(-c2cccc(Cc3nn(-c4cnn(C)c4)ccc3=O)c2)nc1 [Example 162, 3-{3-[5-(ethoxymethyl)pyrimidin-2-yl]benzyl}-1-(1-methyl-1H-pyrazol-4-yl)pyridazin-4(1H)-one]	> 7.00
